Data as given in patent publication US12091402B2 (Avilar Therapeutics, Inc., priority 2021, dated 2024).

The compounds below were run against T1, ASGPR (Homo sapiens, UniProt P07306) (assay: Affinity to ASGPR by surface plasmon resonance (SPR)).
T1 sequence (P07306 1-291): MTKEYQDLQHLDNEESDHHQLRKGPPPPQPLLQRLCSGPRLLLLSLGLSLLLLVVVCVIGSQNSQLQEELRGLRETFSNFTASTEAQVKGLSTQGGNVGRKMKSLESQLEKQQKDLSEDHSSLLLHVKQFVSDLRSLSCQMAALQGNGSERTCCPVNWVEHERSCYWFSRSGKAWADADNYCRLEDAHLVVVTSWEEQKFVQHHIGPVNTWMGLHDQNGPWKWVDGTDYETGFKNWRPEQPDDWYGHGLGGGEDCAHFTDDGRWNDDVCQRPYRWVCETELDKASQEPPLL

SMILES	Kd [nM]
NC(=O)c1sc(N[C@H]2CO[C@H](CO)[C@H](O)[C@@H]2O)nc1C(F)(F)F [A54, 2-(((3S,4R,5R,6R)-4,5-dihydroxy-6-(hydroxymethyl)tetrahydro-2H-pyran-3-yl)amino)-4-(trifluoromethyl)thiazole-5-carboxamide]	> 20000
Cc1cc(C#N)nc(N[C@H]2[C@H]3OC[C@](CO)(O3)[C@H](O)[C@@H]2O)n1 [A38, 2-[[(1S,2R,3R,4R,5S)-2,3-dihydroxy-1-(hydroxymethyl)-6,8-dioxabicyclo[3.2.1]octan-4-yl]amino]-6-methyl-pyrimidine-4-carbonitrile]	1000 to 10000
OC[C@H]1OC[C@H](Nc2nccnc2C(F)(F)F)[C@@H](O)[C@H]1O [A101, (2R,3R,4R,5S)-2-(hydroxymethyl)-5-((3-(trifluoromethyl)pyrazin-2-yl)amino)tetrahydro-2H-pyran-3,4-diol]	1000 to 10000
CCOC(=O)c1cnc(C(F)(F)F)nc1N[C@H]1[C@H]2OC[C@](CO)(O2)[C@H](O)[C@@H]1O [A110, ethyl 4-(((1S,2R,3R,4R,5S)-2,3-dihydroxy-1-(hydroxymethyl)-6,8-dioxabicyclo[3.2.1]octan-4-yl)amino)-2-(trifluoromethyl)pyrimidine-5-carboxylate]	1000 to 10000
O[C@@H]1[C@H](O)[C@@H](Nc2cncc(C(F)(F)F)n2)CO[C@@H]1CNc1ccccc1 [A95, (2R,3R,4R,5S)-2-((phenylamino)methyl)-5-((6-(trifluoromethyl)pyrazin-2-yl)amino)tetrahydro-2H-pyran-3,4-diol]	1000 to 10000
CCOC(=O)c1ccc(Cl)nc1N[C@H]1[C@H]2OC[C@](CO)(O2)[C@H](O)[C@@H]1O [A112, ethyl 6-chloro-2-(((1S,2R,3R,4R,5S)-2,3-dihydroxy-1-(hydroxymethyl)-6,8-dioxabicyclo[3.2.1]octan-4-yl)amino)nicotinate]	1000 to 10000
N#Cc1cc(F)cnc1N[C@H]1[C@H]2OC[C@](CO)(O2)[C@H](O)[C@@H]1O [A40, 2-[[(1S,2R,3R,4R,5S)-2,3-dihydroxy-1-(hydroxymethyl)-6,8-dioxabicyclo[3.2.1]octan-4-yl]amino]-5-fluoro-pyridine-3-carbonitrile]	1000 to 10000
O=C(NC[C@H]1OC[C@H](Nc2cncc(C(F)(F)F)n2)[C@@H](O)[C@H]1O)[C@H]1C[C@H]1F [A108, (1R,2R)—N-(((2R,3R,4R,5S)-3,4-dihydroxy-5-((6-(trifluoromethyl)pyrazin-2-yl)amino)tetrahydro-2H-pyran-2-yl)methyl)-2-fluorocyclopropane-1-carboxamide]	> 20000
C=CCO[C@H]1O[C@H](Cn2cc(CO)nn2)[C@H](O)[C@H](O)[C@H]1Nc1nccc(C(F)(F)F)n1 [A64, (2R,3R,4R,5R,6S)-6-(allyloxy)-2-((4-(hydroxymethyl)-1H-1,2,3-triazol-1-yl)methyl)-5-((4-(trifluoromethyl)pyrimidin-2-yl)amino)tetrahydro-2H-pyran-3,4-diol]	1000 to 10000
O[C@@H]1[C@H](O)[C@@H](Nc2nccc(C(F)(F)F)n2)CO[C@@H]1Cn1ccnn1 [A67, (2R,3R,4R,5S)-2-((1H-1,2,3-triazol-1-yl)methyl)-5-((4-(trifluoromethyl)pyrimidin-2-yl)amino)tetrahydro-2H-pyran-3,4-diol]	< 1000
OCc1cnn(C[C@H]2OC[C@H](Nc3nccc(C(F)(F)F)n3)[C@@H](O)[C@H]2O)c1 [A62, (2R,3R,4R,5S)-2-((4-(hydroxymethyl)-1H-pyrazol-1-yl)methyl)-5-((4-(trifluoromethyl)pyrimidin-2-yl)amino)tetrahydro-2H-pyran-3,4-diol]	1000 to 10000

Continued, values first:

Kd [nM]	SMILES
< 1000	C=CCO[C@H]1O[C@H](Cn2ccnn2)[C@H](O)[C@H](O)[C@H]1Nc1nccc(C(F)(F)F)n1 [A69, (2R,3R,4R,5R,6S)-2-((1H-1,2,3-triazol-1-yl)methyl)-6-(allyloxy)-5-((4-(trifluoromethyl)pyrimidin-2-yl)amino)tetrahydro-2H-pyran-3,4-diol]
< 1000	C=CCO[C@H]1O[C@H](Cn2ccnn2)[C@H](O)[C@H](O)[C@H]1NC(=O)C(F)(F)F [A70, N-((2S,3R,4R,5R,6R)-6-((1H-1,2,3-triazol-1-yl)methyl)-2-(allyloxy)-4,5-dihydroxytetrahydro-2H-pyran-3-yl)-2,2,2-trifluoroacetamide]
< 1000	O=C(NC[C@H]1OC[C@H](Nc2cncc(C(F)(F)F)n2)[C@@H](O)[C@H]1O)C12CC(C1)C2 [A102, N-(((2R,3R,4R,5S)-3,4-dihydroxy-5-((6-(trifluoromethyl)pyrazin-2-yl)amino)tetrahydro-2H-pyran-2-yl)methyl)bicyclo[1.1.1]pentane-1-carboxamide]
< 1000	OC[C@@]12CO[C@@H](O1)[C@H](Nc1nc(Cl)ncc1C(F)(F)F)[C@@H](O)[C@H]2O [A114, (1S,2R,3R,4R,5S)-4-((2-chloro-5-(trifluoromethyl)pyrimidin-4-yl)amino)-1-(hydroxymethyl)-6,8-dioxabicyclo[3.2.1]octane-2,3-diol]
< 1000	CN(C[C@H]1OC[C@H](Nc2cncc(C(F)(F)F)n2)[C@@H](O)[C@H]1O)c1ccccc1 [A99, (2R,3R,4R,5S)-2-((methyl(phenyl)amino)methyl)-5-((6-(trifluoromethyl)pyrazin-2-yl)amino)tetrahydro-2H-pyran-3,4-diol]
< 100	O=C(O)CC(=O)NC(COCCC(=O)NC[C@H]1OC[C@H](Nc2cncc(C(F)(F)F)n2)[C@@H](O)[C@H]1O)COCCC(=O)NC[C@H]1OC[C@H](Nc2cncc(C(F)(F)F)n2)[C@@H](O)[C@H]1O [A33, 3-((1,15-bis((2R,3R,4R,5S)-3,4-dihydroxy-5-((6-(trifluoromethyl)pyrazin-2-yl)amino)tetrahydro-2H-pyran-2-yl)-3,13-dioxo-6,10-dioxa-2,14-diazapentadecan-8-yl)amino)-3-oxopropanoic acid]
< 1000	[N-]=[N+]=NC[C@@]12CO[C@@H](O1)[C@H](Nc1nc(Cl)ns1)[C@@H](O)[C@H]2O [A74, (1S,2R,3R,4R,5S)-1-(azidomethyl)-4-((3-chloro-1,2,4-thiadiazol-5-yl)amino)-6,8-dioxabicyclo[3.2.1]octane-2,3-diol]
< 1000	COc1cc(N[C@H]2[C@H]3OC[C@](CO)(O3)[C@H](O)[C@@H]2O)nc(C(F)(F)F)n1 [A47, (1S,2R,3R,4R,5S)-1-(hydroxymethyl)-4-((6-methoxy-2-(trifluoromethyl)pyrimidin-4-yl)amino)-6,8-dioxabicyclo[3.2.1]octane-2,3-diol]
< 100	O=C(O)CNC(COCCC(=O)NCCOCCOCCOCCOC[C@H]1OC[C@H](Nc2nccc(C(F)(F)F)n2)[C@@H](O)[C@H]1O)COCCC(=O)NCCOCCOCCOCCOC[C@H]1OC[C@H](Nc2nccc(C(F)(F)F)n2)[C@@H](O)[C@H]1O [A132]
< 1000	COc1cc(C(F)(F)F)nc(N[C@H]2[C@H]3OC[C@](CO)(O3)[C@H](O)[C@@H]2O)n1 [A46, (1S,2R,3R,4R,5S)-1-(hydroxymethyl)-4-((4-methoxy-6-(trifluoromethyl)pyrimidin-2-yl)amino)-6,8-dioxabicyclo[3.2.1]octane-2,3-diol]
